Read-outs that look alike come from different tables or passages of the source.
Tests used:
[1] = tested on: 4′-fluoro-6-[(alpha,alpha,alpha,-trifluoro-m-toly)oxy]-picolinamide resistant mutants; experiment: Cross-resistance test of resistant mutants against other PDS inhibitors; assay type: cell-based, Synechocystis
[2] = tested on: wild type Synechocystis PCC6803; experiment: Paper disc assay on BG-11 agar, wild type Synechocystis; assay type: cell-based
Description: (§1) Alternatively screens can be performed on agar plates with “lawns” of cyanobacteria and paper discs impregnated with test compounds. In this case, zones of inhibited growth around paper discs can be detected after two or three days.
(§2) To set up the assay, wild type cells of Synechocystis were mixed with equal volumes of 2× top agar and 2× BG-11 and overlaid on top of BG-11 agar plate. Cells normally appear in 3-5 days after plating. This method will yield an even and uniform lawn of cells. Upon solidifying, test compounds are then spotted on Whatman filter paper disc before being placed on agar plates. Four compounds can be tested on a single plate. Using this screening, in an example employing 160 different compounds, predominantly compounds of novel mode of action, have been tested on this microbe, and on average, 25% of the compounds show at least some activity.
Susceptibility of Synechocystis to 4′-fluoro-6-[(alpha,alpha,alpha,-trifluoro-m-toly)oxy]-picolinamide was tested using a paper disc assay in which 4′-fluoro-6-[(alpha,alpha,alpha,-trifluoro-m-toly)oxy]-picolinamide was spotted in a paper disc before being placed on a lawn of cells. In determining susceptibility, the size of the zone of inhibition is indicative of the potency of the compound.
(§3) A rapid plate based assay for screening and identifying active compounds is then performed. Wild type cells of Synechocystis are mixed with equal volumes of 2× top agar and 2× BG-11. The mixture is then overlaid on top of a BG-11 agar plate. Cells normally appear 3-5 days after plating. This method will yield an even and uniform lawn of cells.
(§4) After solidification of the agar, test compounds were spotted on Whatman filter paper disc, and then were placed on agar plates. Four different compounds were tested on a single plate. Using this screening method, 160 different compounds were tested, predominantly compounds of novel mode of action. On average, 25% of the compounds show at least some activity.
The resistant phenotype of selected mutant cell lines was further tested in solid medium as well as in suspension cultures. […]

wild type Synechocystis = experiment: Dose-response in liquid/suspension culture, wild type Synechocystis; assay type: cell-based, Synechocystis PCC6803
Protocol: (§5) To identity a target site gene activity, two types of Bluegreen algae, Synechocystis PCC 6803 (American Type Culture Collection, Rockville, Md.) and Anabaena PCC 7120 (American Type Culture Collection, Rockville, Md.) can be used for the screen. One is grown in microtiter dishes in BG-11 medium supplemented with various concentrations of the test compounds. Inhibition of growth can be monitored by visual inspection after two to three days of culture. Quantitative growth measurements can be taken photometrically starting one day after inoculation.
(§6) These experiments also established a dose-response curve. A lethal concentration for resistant mutant selection was 1-2 μM of 4′-fluoro-6-[(alpha,alpha,alpha,-trifluoro-m-toly)oxy]-picolinamide. Dose-response studies were also performed in 96-sell microtiter plates on wild type and putative 4′-fluoro-6-[(alpha,alpha,alpha,-trifluoro-m-toly)oxy]-picolinamide resistant mutants of Synechocystis. The growth of the culture was measured daily at an optical density of 690 nm.
(§7) For wild type cells (WT), the growth was inhibited at concentrations of 4′-fluoro-6-[(alpha,alpha,alpha,-trifluoro-m-toly)oxy]-picolinamide of <0.25 μM, with an I50 in the sub μM range. By contrast, the I50 values are between 1-2 μM for 5-1/12E, and in the range of 5-10 μM for 7-3/12F and 7-4/12F, respectively.
(§8) Wild type cells were inhibited at concentrations of <0.25 uM 4′-fluoro-6-[(alpha,alpha,alpha,-trifluoro-m-toly)oxy]-picolinamide, with an I50 in the sub μM range. In contrast I50 values are between 1-2 μM for 5-1/12E and 5-1/12F, and between 5-10 μM for 7-3/12F and […]. Thus, because the cell lines with the mutant pds genes are far more resistant than wild type cell lines, there is evidence that the selected cultures contain 4′-fluoro-6-[(alpha,alpha,alpha,-trifluoro-m-toly)oxy]-picolinamide resistance.

[3] = tested on: Synechocystis EMS resistant mutant cell lines; experiment: Dose-response in suspension culture, resistant mutant cell lines; assay type: cell-based, Synechocystis PCC6803; conditions: seven days, read-out: I50
Protocol: as §6, §7, §8

Synechocystis PCC 6803 = experiment: Susceptibility of Synechocystis PCC 6803 to known herbicides (Table 2); assay type: cell-based
Protocol: as §5, §1, §2
A rapid plate based assay for screening lead compounds was developed as follows. First, either one of two types of bluegreen algae, Synechocystis PCC6803 and Anabaen PC 7120 were grown in microtitre dishes containing BG-11 supplemented with various concentrations of 160 different test compounds. Alternatively, screens can be performed on agar plates with lawns of cyanobacteria and paper discs impregnated with test compounds.
as §3, §4
Cyanobacteria are a particularly useful source of genes for enhancing crop performance due to their similarity, and ancestral connection, to plant chloroplasts. In particular, cyanobacterial genes may be useful for transformation directly into the chloroplast genome due to similarities in genetic elements. Similarities in cyanobacterial genes and proteins to those from chloroplasts can carry over to a shared susceptibility to herbicides.

[4] = tested on: E. coli M1262 expressing the cyanobacterial ahas gene; experiment: Growth on minimal media of E. coli M1262 expressing the cyanobacterial ahas gene; assay type: cell-based
Description: To confirm that these plasmids carry functional AHAS sequences, plasmid DNA from each of the ten rescued colonies was transformed into the E. coli strain M1262. (leuB6, ilv1614, ilvH612, λ^−, relA1, spoT1, ilvB619, ilvG603, ilfG605(am), thi-1) (Genetics Stock Center, Yale University). This strain of E. coli is lacking in AHAS. […] The ahas gene can therefore be used for achieving herbicide tolerance in crops by transformation into the nuclear or plastidic genome.

Anabaena PCC7120 = experiment: In vivo growth in BG-11 media with commercial herbicides; assay type: cell-based; conditions: 100 nM, one week of culture in BG-11 media
Protocol: (§9) In vivo resistance of cyanobacteria to PURSUIT® imazethapyr and OUST® sulfometuron methyl. As a preliminary matter, Synechocystis PCC6803 and Anabaenia PCC7120 were tested for susceptibility to PURSUIT® imazethapyr and OUST® sulfometuron methyl. AHAS genes which are resistant to these herbicides are excellent candidates for transformation in plant plastomes and nuclear genomes. Such transformants can be used in a weed control strategy using a combination of transgenic herbicide resistant crops and herbicides.
(§10) In vivo testing of Synechocystis PCC6803 and Anabaena PCC7120 was done by culturing the organisms in varying concentrations of the commercial herbicides. […] For relative comparison purposes a concentration of 1 μM PURSUIT® imazethapyr in agar media is lethal to Arabidopsis plants.

Synechocystis PCC6803 = experiment: as above; assay type: cell-based; conditions: 100 nM, one week of culture in BG-11 media
Protocol: as §9, §10

Synechocystis AHAS = experiment: In vitro AHAS assay; assay type: biochemical, Synechocystis PCC6803; conditions: 100 nM
Protocol: (§11) AHAS is the target site of both PURSUIT® imazethapyr and OUST® sulfometuron methyl herbicides. To determine if resistance to the herbicides is due to a natural resistance to inhibition of the acetohydroxyacid synthase enzymes from the cyanobacteria, or if it is due to alternative mechanisms (e.g. lack of entry into the cell), the in vitro activity of the AHAS enzyme in the presence of the herbicides was tested.
(§12) AHAS assays were performed with slight modification as described by Singh et. al (Singh B K, Stidham M A, Shaner D L, 1988, Assay for acetohydroxyacid synthase from plants. Anal Biochem 171: 173-179).
(§13) Synechocystis PCC6803 and Anabaena PCC7120 were cultured in 1.5 L of BG-11 media. Cells were collected by centrifuge and stored frozen at −80° C. Frozen cells were thawed and placed in a 30 mL Bead Beater cell disruptor chamber (BioSpec Corp Bartlesville, Okla.). Seven mL of acid washed sand was added. The chamber was filled with 2× ASHA assay buffer, consisting of 100 mM HEPES pH7.0, 200 mM pyruvate, 20 mM MgCl2, 2 mM TPP (Thiamine pyrophosphate) and 100 μM FAD (flavin adenine dinucleotide).
(§14) The Bead Beater cell disruptor was packed in ice and turned on for 10 seconds, followed by cooling for 3 minutes. This cycle was repeated five times. The extract was transferred into a centrifuge tube, and spun in a Beckman SA20 (Beckman, Fullerton, Calif.) rotor for 15 minutes at 17,000 rpms. […]

Anabaena AHAS = experiment: In vitro AHAS assay; assay type: biochemical, Anabaena PCC7120; conditions: 100 nM
Protocol: as §11, §12, §13, §14

[5] = wild type cells, suspension culture, seven days

Structure (SMILES): O=C(Nc1cccc2c1C(=O)c1cccc(NC(=O)c3cc(C(=O)Nc4cccc5c4C(=O)c4cccc(NC(=O)c6ccccc6)c4C5=O)c(C(=O)Nc4cccc5c4C(=O)c4cccc(NC(=O)c6ccccc6)c4C5=O)cc3C(=O)Nc3cccc4c3C(=O)c3cccc(NC(=O)c5ccccc5)c3C4=O)c1C2=O)c1ccccc1 [1,2,4,5-benzenetetracarboxamide,N,N′,N″,N′″-tetrakis[5-(benzoylamino)-9,10-dihydro-9,10-dioxo-1-anthracenyl]]
- cross-resistance of the resistant mutants [1]: exhibited cross-resistance

Structure (SMILES): O=C(Nc1ccc(F)cc1)c1cccc(Oc2cccc(C(F)(F)F)c2)n1 [4′-fluoro-6-[(alpha,alpha,alpha,-trifluoro-m-toly)oxy]-picolinamide]
- concentrations active against Synechocystis PCC6803 ([2]; BG-11 solid medium, paper disc assay): 1 to 2 µM
- lethal concentration for resistant mutant selection ([2]; Synechocystis): 1 to 2 µM
- growth of wild type Synechocystis ([2]; paper disc assay, 0.5 nmol): significantly inhibited
- I50 of growth inhibition (wild type Synechocystis; liquid cultures): lower sub-micromolar range
- I50 (wild type Synechocystis; [5]): sub μM range
- concentration at which growth was inhibited (wild type Synechocystis; [5]): < 0.25 µM
- IC50 ([3]; mutant 5-1/12E): 1 to 2 µM
- IC50 ([3]; mutant 5-1/12F): 1 to 2 µM
- IC50 ([3]; mutant 5-4/12F): 5 to 10 µM
- IC50 ([3]; mutant 7-3/12F): 5 to 10 µM
- IC50 ([3]; mutant 7-4/12F): 5 to 10 µM

Structure (SMILES): CC(=O)/C(C(=O)c1ccc(Cl)cc1Cl)=C(/N)SCc1ccccc1 [(2E)-2-[amino(benzylsulfanyl)methylene]-1-(2,4-dichlorophenyl)-1,3-butanedione]
- cross-resistance of the resistant mutants [1]: exhibited cross-resistance

Structure (SMILES): N#Cc1cc(Br)c(O)c(Br)c1 [Bromoxynil]
- Activity Rating (++ = highest) (Synechocystis PCC 6803): +

Structure (SMILES): CN(C)C(=O)Nc1ccc(Cl)cc1 [CMU]
- Activity Rating (++ = highest) (Synechocystis PCC 6803): +

Structure (SMILES): CCOC(=O)Nc1cccc(OC(=O)Nc2ccccc2)c1 [Desmedipham]
- Activity Rating (++ = highest) (Synechocystis PCC 6803): ++

Structure (SMILES): CN(C)C(=O)Nc1ccccc1 [Fenuron]
- Activity Rating (++ = highest) (Synechocystis PCC 6803): ++

Structure (SMILES): CN(C)C(=O)Nc1ccc(Cl)cc1 [Monuron]
- Activity Rating (++ = highest) (Synechocystis PCC 6803): ++

Structure (SMILES): COC(=O)c1ccccc1S(=O)(=O)NC(=O)Nc1nc(C)cc(C)n1 [OUST® sulfometuron methyl, sulfometuron methyl]
- growth on minimal media in the presence of the herbicide [4]: capable of growing
- inhibition of growth (Anabaena PCC7120): No inhibition of growth
- inhibition of growth (Synechocystis PCC6803): No inhibition of growth
- inhibition of AHAS enzyme (Synechocystis AHAS): No significant inhibition
- inhibition of AHAS enzyme (Anabaena AHAS): No significant inhibition

Structure (SMILES): COC(=O)Nc1cccc(OC(=O)Nc2cccc(C)c2)c1 [Phenmedipham]
- Activity Rating (++ = highest) (Synechocystis PCC 6803): ++

Structure (SMILES): CCNc1nc(Cl)nc(NCC)n1 [Simazine]
- Activity Rating (++ = highest) (Synechocystis PCC 6803): ++

Structure (SMILES): Cc1cc(OCC=C(Cl)Cl)nc(Oc2ccnc(C(F)(F)F)c2)c1 [pyridine, 2-[(3,3-dichloro-2-propenyl)oxy]-4-methyl-6-[(2-(trifluoromethyl)-4-pyrodinyl]oxy]]
- cross-resistance of the resistant mutants [1]: exhibited cross-resistance

Source: patent US7285701B2, “Cyanobacterial nucleic acid fragments encoding proteins useful for controlling plant traits via nuclear or plastome transformation” (BASF Plant Science GmbH, priority 2001, dated 2007)
